Test system: ouabain-induced arrhythmias in guinea-pig papillary muscles
Assay: Inhibition of ouabain-induced arrhythmias (aftercontractions) in isolated guinea-pig papillary muscles
Conditions: for maximum amplitude of aftercontractions #1: n=5, vehicle 143±54 mg
Procedure: The effects of the compounds of the invention were tested on ouabain-induced arrhythmias in guinea-pig papillary muscles.
Guinea-pig papillary muscles were mounted into horizontal muscle cuvette. A hook connected to force transducer was attached to another end of the muscle. Muscle preparations were electrically paced at 1 Hz with field stimulation via platinum electrodes. Modified Tyrode solution was used for superfusion of muscle preparations. The composition of the Tyrode solution was the following (mM): NaCl 135, MgCl2×6H2O 1, KCl 5, CaCl2×2H2O 2, NaHCO3 15, Na2HPO4×2H2O 1, and glucose 10. The Tyrode solution was gassed with carbogen (95% O2, 5% CO2) to set pH at 7.4. Experiments were carried out at 37° C. Acquisition and analysis of twitch tensions with Action Potential and Force Measurement System (ACFO v1.0, Fision Ltd, Finland).
Ouabain by blocking of sodium-potassium ATPase increase intracellular sodium which is changed for calcium via NCX. Increased intracellular calcium is leading to overload of sarcoplasmic reticulum (SR) and spontaneous calcium release from SR inducing delayed […] (DADs). Equivalence for DADs in force signal is aftercontractions (ACs) which are seen as spontaneous twitches after the pacing controlled twitch.
The compounds of the invention delayed appearance and decreased amplitude of aftercontractions.

CC(=O)Nc1ccc(Oc2ccc3c(c2)CCC(c2ccccc2)O3)nc1 (stereo not drawn) [Example 27]
appearance of aftercontractions (time to appearance) (30 μM, mean±SD, n=5, vehicle 25±8.9 min, p=0.013, paced at 1 Hz, 37° C): 38 ± 7.5 min
maximum amplitude of aftercontractions #1 (30 μM, p=0.008): 74 ± 16 mg

CS(=O)(=O)Nc1ccc(Oc2ccc3c(c2)CCC(c2cccc(F)c2)O3)nc1 (stereo not drawn) [Example 67, N-{6-[2-(3-Fluorophenyl)chroman-6-yloxy]pyridin-3-yl}methane Sulfonamide]
maximum amplitude of aftercontractions #1 (10 μM, p=0.027): 88 ± 20 mg
